This note sets out measurements from patent publication US10011607B2, “Ethynyl derivatives” (Hoffmann-La Roche Inc., priority 2015, dated 2018).

For this experiment, the target named is human mGlu4 receptor (Homo sapiens (Human), UniProt Q14833). Briefly: Ca2+ mobilization in vitro assay on recombinant human mGlu4 expressed in HEK293 cells (PAM). The class given is cell-based. Conditions: for Emax: HEK293, maximal response in % of maximal stimulatory effect of saturating L-AP4, read-out: Eff. (%); for EC50: HEK293 cells, human mGlu4, in presence of EC20 of L-AP4, read-out: EC50 (nM) mGlu4PAM. An excerpt:
FIG. 1: Illustrates the experimental outline for mGlu4 PAM Ca^2+ mobilization screening assay and the determination of EC50 and % Emax values. […] A depression of the signal observed after addition of the EC20 concentration of L-AP4 was indicative of an inhibitory activity of the test compound.
Determination of EC50 Values Using a Ca2+ Mobilization In Vitro Assay on Recombinant Human mGlu4 Expressed in HEK293 Cells:
A monoclonal HEK-293 cell line stably transfected with a cDNA encoding for the human mGlu4 receptor was generated; for the work with mGlu4 Positive Allosteric Modulators (PAMs), a cell line with low receptor expression levels and low constitutive receptor activity was selected to allow the differentiation of agonistic versus PAM activity. Cells were cultured according to standard protocols (Freshney, 2000) in Dulbecco's Modified Eagle Medium with high glucose supplemented with 1 mM glutamine, 10% (vol/vol) heat-inactivated bovine calf serum, Penicillin/Streptomycin, 50 μg/ml hygromycin and 15 μg/ml blasticidin (all cell culture reagents and antibiotics from Invitrogen, Basel, Switzerland).
About 24 hrs before an experiment, 5×10^4 cells/well were seeded in poly-D-lysine coated, black/clear-bottomed 96-well plates. The cells were loaded with 2.5 μM Fluo-4AM in loading buffer (1×HBSS, 20 mM HEPES) for 1 hr at 37° C. and washed five times with loading buffer. The cells were transferred into a Functional Drug Screening System 7000 (Hamamatsu, Paris, France), and 11 half logarithmic serial dilutions of test compound at 37° C. were added and the cells were incubated for 10-30 min. with on-line recording of fluorescence. Following this pre-incubation step, the agonist (2S)-2-amino-4-phosphonobutanoic acid (L-AP4) was added to the cells at a concentration corresponding to EC20 with on-line recording of fluorescence; in order to account for day-to-day variations in the responsiveness of cells, the EC20 of L-AP4 was determined immediately ahead of each experiment by recording of a full dose-response curve of L-AP4.
Responses were measured as peak increase in fluorescence minus basal (i.e. fluorescence without addition of L-AP4), normalized to the maximal stimulatory effect obtained with saturating concentrations of L-AP4. Graphs were plotted with the % maximal stimulatory using XLfit, a curve fitting program that iteratively plots the data using Levenburg Marquardt algorithm. The single site competition analysis equation used was y=A+((B−A)/(1+((x/C)D))), where y is the % maximal stimulatory effect, A is the minimum y, B is the maximum y, C is the EC50, x is the log 10 of the concentration of the competing compound and D is the slope of the curve (the Hill Coefficient). From these curves the EC50 (drug concentration at which 50% of the maximal receptor activation was achieved), the Hill coefficient as well as the maximal response in % of the maximal stimulatory effect obtained with saturating concentrations of L-AP4 were calculated (see FIG. 1).
(In general: Calcium flux is commonly read through the fluorescence of an indicator in the cells.)

Sequence of human mGlu4 receptor (Q14833 33-912): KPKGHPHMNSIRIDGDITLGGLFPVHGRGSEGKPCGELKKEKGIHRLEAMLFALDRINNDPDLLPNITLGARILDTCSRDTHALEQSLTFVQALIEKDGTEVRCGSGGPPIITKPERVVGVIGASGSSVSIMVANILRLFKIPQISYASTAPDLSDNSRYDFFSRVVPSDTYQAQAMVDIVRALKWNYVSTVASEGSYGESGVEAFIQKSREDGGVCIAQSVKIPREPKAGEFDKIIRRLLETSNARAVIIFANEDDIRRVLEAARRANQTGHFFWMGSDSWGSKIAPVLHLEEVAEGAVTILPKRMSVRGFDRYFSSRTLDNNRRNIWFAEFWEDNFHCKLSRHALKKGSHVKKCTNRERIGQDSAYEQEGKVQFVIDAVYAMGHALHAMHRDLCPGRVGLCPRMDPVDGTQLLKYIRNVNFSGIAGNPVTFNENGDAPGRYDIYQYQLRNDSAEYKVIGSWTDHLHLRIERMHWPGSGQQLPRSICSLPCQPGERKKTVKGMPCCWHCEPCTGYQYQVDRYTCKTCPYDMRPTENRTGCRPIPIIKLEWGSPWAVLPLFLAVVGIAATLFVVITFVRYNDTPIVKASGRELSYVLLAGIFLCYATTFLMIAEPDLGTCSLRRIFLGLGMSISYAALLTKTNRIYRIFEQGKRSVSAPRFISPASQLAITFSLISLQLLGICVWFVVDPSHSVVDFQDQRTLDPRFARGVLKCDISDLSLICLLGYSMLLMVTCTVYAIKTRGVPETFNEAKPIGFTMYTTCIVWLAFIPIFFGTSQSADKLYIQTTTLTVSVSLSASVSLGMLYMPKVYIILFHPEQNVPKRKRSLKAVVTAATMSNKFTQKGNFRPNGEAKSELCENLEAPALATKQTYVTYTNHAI

For orientation: EC50 means the midpoint of the concentration-response curve. Regarding `C[C@@]12CC(=O)N(c3c(F)cc(C#Cc4ccccc4)cc3F)C(=O)N1CCN(Cc1cccc(F)c1)C2=O` [Example 90, (9aS)-7-[2,6-difluoro-4-(2-phenylethynyl)phenyl]-2-[(3-fluorophenyl)methyl]-9a-methyl-4,9-dihydro-3H-pyrazino[1,2-c]pyrimidine-1,6,8-trione], the Emax amounted to 109% and the EC50 was found to be 187 nM.

In the case of `CC[C@@]12CC(=O)N(c3c(F)cc(C#Cc4ccccc4)cc3F)C(=O)N1CCN(c1cnn(C)c1)C2=O` [Example 107, (9aS)-7-[2,6-difluoro-4-(2-phenylethynyl)phenyl]-9a-ethyl-2-(1-methylpyrazol-4-yl)-4,9-dihydro-3H-pyrazino[1,2-c]pyrimidine-1,6,8-trione], the Emax was determined as 125% and the EC50 is 104 nM.

As to `Cc1cc(N2CCN3C(=O)N(c4c(F)cc(C#Cc5ccccc5)cc4F)C(=O)CC3(C)C2=O)nc(C)n1` (racemic) [Example 29, (9aRS)-7-[2,6-difluoro-4-(2-phenylethynyl)phenyl]-2-(2,6-dimethylpyrimidin-4-yl)-9a-methyl-4,9-dihydro-3H-pyrazino[1,2-c]pyrimidine-1,6,8-trione], the Emax worked out at 112% and the EC50 was 177 nM.

In the case of `CC12CC(=O)N(c3ccc(C#Cc4ccccc4)cc3F)C(=O)N1CCN(c1cccnc1)C2=O` (racemic) [Example 108, (9aRS)-7-[2-fluoro-4-(2-phenylethynyl)phenyl]-9a-methyl-2-(3-pyridyl)-4,9-dihydro-3H-pyrazino[1,2-c]pyrimidine-1,6,8-trione], the Emax came to 103% and the half-maximal effective concentration (EC50) amounted to 267 nM.

For `CC12CC(=O)N(c3c(F)cc(C#Cc4ccccc4)cc3F)C(=O)N1CCN(Cc1ccncn1)C2=O` (racemic) [Example 95, (9aRS)-7-[2,6-difluoro-4-(2-phenylethynyl)phenyl]-9a-methyl-2-(pyrimidin-4-ylmethyl)-4,9-dihydro-3H-pyrazino[1,2-c]pyrimidine-1,6,8-trione], the Emax came out at 96% and the EC50 amounted to 142 nM.

For `Cc1cncc(N2CCN3C(=O)N(c4c(F)cc(C#Cc5ccccc5)cc4F)C(=O)CC3(C)C2=O)n1` (racemic) [Example 34, (9aRS)-7-[2,6-difluoro-4-(2-phenylethynyl)phenyl]-9a-methyl-2-(6-methylpyrazin-2-yl)-4,9-dihydro-3H-pyrazino[1,2-c]pyrimidine-1,6,8-trione], the Emax is 114% and the EC50 is 148 nM.

With `Cc1ccc(CN2CCN3C(=O)N(c4c(F)cc(C#Cc5ccccc5)cc4F)C(=O)CC3(C)C2=O)cc1` (racemic) [Example 84, (9aRS)-7-[2,6-difluoro-4-(2-phenylethynyl)phenyl]-9a-methyl-2-(p-tolylmethyl)-4,9-dihydro-3H-pyrazino[1,2-c]pyrimidine-1,6,8-trione], the Emax stood at 87% and the concentration giving a half-maximal response (EC50) came out at 117 nM.

`CCOc1ncc(N2CCN3C(=O)N(c4c(F)cc(C#Cc5ccccc5)cc4F)C(=O)C[C@@]3(C)C2=O)cn1` [Example 39, (9aS or 9aR)-7-[2,6-difluoro-4-(2-phenylethynyl)phenyl]-2-(2-ethoxypyrimidin-5-yl)-9a-methyl-4,9-dihydro-3H-pyrazino[1,2-c]pyrimidine-1,6,8-trione]: the Emax was 103% and the EC50 is 96 nM.

On to `C[C@@]12CC(=O)N(c3c(F)cc(C#Cc4ccccc4)cc3F)C(=O)N1CCN(c1ccnnc1)C2=O` [Example 50, (9aS)-7-[2,6-difluoro-4-(2-phenylethynyl)phenyl]-9a-methyl-2-pyridazin-4-yl-4,9-dihydro-3H-pyrazino[1,2-c]pyrimidine-1,6,8-trione], for which the Emax was found to be 133% and the EC50 amounted to 74 nM.

On to `C[C@@]12CC(=O)N(c3c(F)cc(C#Cc4ccccc4)cc3F)C(=O)N1CCN(c1ccncn1)C2=O` [Example 27, (9aS)-7-[2,6-difluoro-4-(2-phenylethynyl)phenyl]-9a-methyl-2-pyrimidin-4-yl-4,9-dihydro-3H-pyrazino[1,2-c]pyrimidine-1,6,8-trione], for which the Emax worked out at 136% and the EC50 was found to be 39 nM.

With `Cc1cccc(C)c1CN1CCN2C(=O)N(c3c(F)cc(C#Cc4ccccc4)cc3F)C(=O)CC2(C)C1=O` (racemic) [Example 86, (9aRS)-7-[2,6-difluoro-4-(2-phenylethynyl)phenyl]-2-[(2,6-dimethylphenyl)methyl]-9a-methyl-4,9-dihydro-3H-pyrazino[1,2-c]pyrimidine-1,6,8-trione], the Emax was 118% and the EC50 was 68 nM.

Consider `Cn1cc(N2CCN3C(=O)N(c4c(F)cc(C#Cc5ccccc5)cc4F)C(=O)CC3(C)C2=O)cn1` (racemic) [Example 67, (9aRS)-7-[2,6-difluoro-4-(2-phenylethynyl)phenyl]-9a-methyl-2-(1-methylpyrazol-4-yl)-4,9-dihydro-3H-pyrazino[1,2-c]pyrimidine-1,6,8-trione], for which the Emax came out at 129% and the EC50 came to 113 nM.

As to `C[C@@]12CC(=O)N(c3c(F)cc(C#Cc4ccccc4F)cc3F)C(=O)N1CCN(c1cccnc1)C2=O` [Example 109, (9aS)-7-[2,6-difluoro-4-[2-(2-fluorophenyl)ethynyl]phenyl]-9a-methyl-2-(3-pyridyl)-4,9-dihydro-3H-pyrazino[1,2-c]pyrimidine-1,6,8-trione], the Emax was found to be 85% and the EC50 amounted to 56 nM.

For the compound `C[C@@]12CC(=O)N(c3c(F)cc(C#Cc4ccccc4)cc3F)C(=O)N1CCN(c1cn[nH]c1)C2=O` [Example 71, (9aS)-7-[2,6-difluoro-4-(2-phenylethynyl)phenyl]-9a-methyl-2-(1H-pyrazol-4-yl)-4,9-dihydro-3H-pyrazino[1,2-c]pyrimidine-1,6,8-trione], the Emax stood at 182% and the EC50 amounted to 101 nM.

On to `Cn1cc(CCN2CCN3C(=O)N(c4c(F)cc(C#Cc5ccccc5)cc4F)C(=O)C[C@@]3(C)C2=O)cn1` [Example 101, (9aS)-7-[2,6-difluoro-4-(2-phenylethynyl)phenyl]-9a-methyl-2-[2-(1-methylpyrazol-4-yl)ethyl]-4,9-dihydro-3H-pyrazino[1,2-c]pyrimidine-1,6,8-trione], for which the Emax is 129% and the EC50 is 125 nM.

With `COC[C@@]12CC(=O)N(c3c(F)cc(C#Cc4ccccc4)cc3F)C(=O)N1CCN(c1cnn(C)c1)C2=O` [Example 105, (9aR)-7-[2,6-difluoro-4-(2-phenylethynyl)phenyl]-9a-(methoxymethyl)-2-(1-methylpyrazol-4-yl)-4,9-dihydro-3H-pyrazino[1,2-c]pyrimidine-1,6,8-trione], the Emax came out at 144% and the EC50 amounted to 61 nM.

`O=C1C2CC(=O)N(c3c(F)cc(C#Cc4ccccc4)cc3F)C(=O)N2CCN1c1cccnc1` (racemic) [Example 1, (9aRS)-7-[2,6-difluoro-4-(2-phenylethynyl)phenyl]-2-(3-pyridyl)-3,4,9,9a-tetrahydropyrazino[1,2-c]pyrimidine-1,6,8-trione]: the Emax amounted to 105% and the EC50 was 224 nM.

Regarding `C[C@@]12CC(=O)N(c3c(F)cc(C#Cc4ccccc4)cc3F)C(=O)N1CCN(c1cnc(OCc3ccccc3)cn1)C2=O` [Example 45, (9aS)-2-(5-benzyloxypyrazin-2-yl)-7-[2,6-difluoro-4-(2-phenylethynyl)phenyl]-9a-methyl-4,9-dihydro-3H-pyrazino[1,2-c]pyrimidine-1,6,8-trione], the Emax is 122% and the concentration for a half-maximal effect (EC50) stood at 190 nM.

Consider `Cc1cccc(N2CCN3C(=O)N(c4c(F)cc(C#Cc5ccccc5)cc4F)C(=O)CC3(C)C2=O)n1` (racemic) [Example 10, (9aRS)-7-[2,6-difluoro-4-(2-phenylethynyl)phenyl]-9a-methyl-2-(6-methyl-2-pyridyl)-4,9-dihydro-3H-pyrazino[1,2-c]pyrimidine-1,6,8-trione], for which the Emax stood at 127% and the EC50 came out at 163 nM.

With `C[C@@]12CC(=O)N(c3c(F)cc(C#Cc4ccccc4)cc3F)C(=O)N1CCN(c1cnc(O)nc1)C2=O` [Example 42, (9aS)-7-[2,6-difluoro-4-(2-phenylethynyl)phenyl]-2-(2-hydroxypyrimidin-5-yl)-9a-methyl-4,9-dihydro-3H-pyrazino[1,2-c]pyrimidine-1,6,8-trione], the Emax turned out to be 129% and the EC50 worked out at 73 nM.
